Key:
[1] = 7-day toxicological study in MSTO-211H tumor-bearing mice; assay type: in vivo; settings: 10 or 30 mg/kg i.p. daily, 7 days
Experimental: A toxicological evaluation was conducted using an MSTO‐211H xenograft mouse model. All animal studies were carried out in accordance with protocols approved by the Institutional Animal Care and Use Committees of Tongji University and the Chinese Academy of Sciences, and in compliance with national, institutional and local regulations. These experiments were conducted in specific‐pathogen‐free (SPF) and Helicobacter‐free facilities at both institutions. After 7 consecutive days of drug administration (10 mg kg^−1 or 30 mg kg^−1, i.p., q.d.), whole blood and major organs—including the heart, liver, spleen, lungs, and kidneys—were collected for analysis. Blood samples were anticoagulated with EDTA (1.5 mg mL^−1), gently mixed, and subjected to standard hematological assessment. Tissue samples were processed for both paraffin‐embedded and frozen section analysis. Paraffin embedding involved fixation, graded dehydration, clearing, embedding, sectioning at 4 µm, and dewaxing to water. Frozen sections were prepared by embedding tissues in OCT compound, sectioning at −20 °C with a thickness of 8 µm, followed by acetone fixation and rinsing with PBS. […] Microscopic examinations and image acquisition were carried out, and quantitative analyses were performed using specialized image analysis software. […]

TEAD3 = target: T1, TEAD3 (Homo sapiens, UniProt Q99594); experiment: HiBiT degradation assay, HEK293T HiBiT-TEAD3; assay type: cell-based; settings: 6 h
T1 construct: endogenous in cells; host or cells: HEK293T HiBiT knock-in
Experimental: (§1) HiBiT cells were inoculated into 96‐well flat‐bottomed tissue culture plates at a density of 50 000 cells per well, followed by adding degraders into the wells using the I‐DOT dispenser. After 6 h of incubation, the cells were lysed and assayed for degradation using the Nano‐Glo HiBiT Lysis Assay System (Promega, #N3030). Luminescence signals were read using an Envision plate reader (Revvity) and the data were analyzed using GraphPad Prism 9.5 software.
(§2) The ribonucleoprotein (RNP) complex was prepared by mixing 2 µg of NLS‐Cas9‐EGFP nuclease (Novoprotein, #E379‐01A), 50 pmol of sgRNA, 10 µL of electrotransfer solution, and 50 pmol of designed donor DNA, then incubated for 10 min at room temperature. One million HEK293T cells were resuspended in 10 µL of electrotransfection solution and mixed with 10 µL of the RNP complex. Electroporation was performed using a Celetrix SP100 electroporator at 480 V. After electroporation, the cells were transferred to antibiotic‐free DMEM complete medium for overnight culture. The following day, EGFP‐positive cells were sorted using a Sony MA 900 cell sorter, plated in a 96‐well cell culture plate (Servicebio, #CCP‐96H), and cultured for 4 weeks. After this period, positive clones were screened using the Nano‐Glo HiBiT Lytic Detection system (Promega, #N3030).

IKZF1-3, GSPT1 = experiment: HiBiT off-target assessment (IMiD substrates); assay type: cell-based; settings: HiBiT-tagged cell lines, 6 h
Experimental: as §1

[2] = Pharmacokinetic evaluation in ICR male mice; assay type: in vivo; settings: mouse, plasma
TEAD1 = TEAD1 (Homo sapiens, UniProt P28347); experiment: HiBiT degradation assay, HEK293T HiBiT-TEAD1; assay type: cell-based; design: endogenous in cells; host or cells: HEK293T wild-type and CRBN-knockout; settings: 6 h
Experimental: as §1, §2

HOS cells = experiment: Cell viability assay (CTG, 72 h) HOS; assay type: cell-based; settings: Homo sapiens, HOS, 72 h, 3-day compound treatment
Experimental: (§3) Cells were seeded at a density of 1000 cells per well in 96‐well flat‐bottomed cell culture plates and cultured overnight at 37 °C with 5% CO2 to allow for cell attachment. The following day, different concentrations of compounds were added using an I‐DOT dispenser. After 72 h, 25 µL of CellTiter‐Meiluncell Luminescent Cell Viability Reagent (Meilunbio, #PWL111‐2) was added and incubated for 15 min at room temperature. Luminescence signals were then measured using an Envision plate reader (Revvity). Data were analyzed using GraphPad Prism 9.5 software.^[ [30] ^]

[3] = system: MSTO-211H CRBN knockout cells; experiment: Cell viability assay, CRBN-knockout MSTO-211H; assay type: cell-based; settings: Homo sapiens, Figure 3D, read-out: MSTO-211H: CRBN KO IC50
Experimental: as §3

A172 cells = experiment: DIA proteomics in A172 cells; assay type: cell-based, Homo sapiens; settings: 100 nM, 24 h
Experimental: Cells were seeded in 6‐well plates at 1 × 10⁶ cells well^−1 and treated with 100 nM KG‐FP‐003 (n = 3). After 24 h incubation, cells were harvested, washed with ice‐cold PBS, and stored at −80 °C. Cell pellets were lysed in 4 volumes of lysis buffer (1% SDS, 1% protease inhibitor cocktail) followed by 3 min sonication on ice. After centrifugation (12 000 g, 10 min, 4 °C), supernatants were collected for BCA protein quantification. Proteins were reduced with 5 mM DTT (56 °C, 30 min), alkylated with 11 mM iodoacetamide (RT, dark, 15 min), and diluted with 200 mM TEAB to reduce urea concentration below 2 M. Trypsin digestion (1:50 enzyme‐to‐protein ratio) was performed at 37 °C overnight followed by additional 4 h digestion. Peptides were desalted using Strata‐X SPE columns. […] MS analysis was performed on a timsTOF Pro mass spectrometer in dia‐PASEF mode (ESI voltage: 1.75 kV; scan range: 300–1500 m z^−1). DIA data were processed using DIA‐NN (v1.8) against the Homo_sapiens_9606_SP_20 231 220.fasta database (20429 entries) with reversed decoys, using trypsin as the cleavage enzyme. Fixed modifications included N‐terminal methionine excision and carbamidomethylation of cysteine, with FDR set at <1%.

Sequence of TEAD1 (P28347 whole entry): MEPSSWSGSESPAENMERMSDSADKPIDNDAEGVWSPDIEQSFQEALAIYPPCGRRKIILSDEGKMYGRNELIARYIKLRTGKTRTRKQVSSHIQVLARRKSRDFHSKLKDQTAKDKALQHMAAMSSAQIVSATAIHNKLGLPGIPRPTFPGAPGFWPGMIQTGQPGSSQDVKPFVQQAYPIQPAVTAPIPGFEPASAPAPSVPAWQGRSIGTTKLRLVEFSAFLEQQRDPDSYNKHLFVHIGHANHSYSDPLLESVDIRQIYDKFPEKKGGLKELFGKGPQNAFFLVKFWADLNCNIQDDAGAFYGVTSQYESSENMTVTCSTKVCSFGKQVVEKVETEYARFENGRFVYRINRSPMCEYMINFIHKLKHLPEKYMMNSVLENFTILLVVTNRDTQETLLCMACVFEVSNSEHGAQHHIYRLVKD
T1 sequence (Q99594 whole entry): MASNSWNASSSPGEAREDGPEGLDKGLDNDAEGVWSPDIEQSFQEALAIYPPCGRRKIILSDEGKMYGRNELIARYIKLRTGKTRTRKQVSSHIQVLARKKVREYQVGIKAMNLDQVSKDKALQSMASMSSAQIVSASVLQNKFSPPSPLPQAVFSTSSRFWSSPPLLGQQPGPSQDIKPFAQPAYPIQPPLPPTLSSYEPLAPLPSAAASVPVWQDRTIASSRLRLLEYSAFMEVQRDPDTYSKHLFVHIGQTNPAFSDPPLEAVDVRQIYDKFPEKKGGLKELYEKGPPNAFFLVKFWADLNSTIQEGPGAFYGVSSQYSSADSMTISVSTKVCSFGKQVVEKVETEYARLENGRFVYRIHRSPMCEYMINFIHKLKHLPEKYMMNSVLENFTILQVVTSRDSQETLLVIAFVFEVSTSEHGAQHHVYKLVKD

Q: With CNC(=O)c1cc2c(c(F)c1-c1c(Cl)c(F)cc3c1C[C@@](CN[C@H]1CC[C@H](C(=O)N4CCC(CC5CCN(C(=O)COc6ccc(N7CCC(=O)NC7=O)c(C)c6)CC5)CC4)CC1)(c1ccccc1)O3)[C@@H](O)[C@@H](C)C2 [KG-FP-003] as the compound, how does the Hematological analyses [1] read?
A: no significant deviations from baseline

Q: What about the “Histopathological examination of heart, liver, spleen, lungs, kidneys” value [1] of the same compound?
A: no structural abnormalities or pathological lesions

Q: And the DC50 (TEAD3)?
A: 12 ± 5 nM

Q: And the “TEAD3 Dmax” value (TEAD3)?
A: ≈ 90%

Q: What about the Dmax (TEAD3; HEK-293T) of the same compound?
A: 87 ± 9%

Q: What about the “Off-target degradation of IMiD substrates IKZF1-3 and GSPT1” value (IKZF1-3, GSPT1) of the same compound?
A: no off‐target degradation was detected

Q: What about the AUC(0-inf) ([2]; IP 5 mg/kg) of the same compound?
A: 2610 ng·h/mL

Q: And the AUC(0-t) ([2]; IP 5 mg/kg)?
A: 2560 ng·h/mL

Q: And the Cmax ([2]; IP 5 mg/kg)?
A: 2010 ng/mL

Q: What about the MRT inf ([2]; IP 5 mg/kg) of the same compound?
A: 3.13 h

Q: What about the Tmax ([2]; IP 5 mg/kg) of the same compound?
A: 0.42 h

Q: What about the half-life ([2]; IP 5 mg/kg) of the same compound?
A: 5.42 h

Q: And the bioavailability ([2]; IP 5 mg/kg, read-out: F% (bioavailability))?
A: 99%

Q: What about the AUC(0-inf) ([2]; IV 2 mg/kg) of the same compound?
A: 1060 ng·h/mL

Q: What about the AUC(0-t) ([2]; IV 2 mg/kg) of the same compound?
A: 1040 ng·h/mL

Q: And the Cmax ([2]; IV 2 mg/kg)?
A: 4430 ng/mL

Q: And the MRT inf ([2]; IV 2 mg/kg)?
A: 1.4 h

Q: And the Tmax ([2]; IV 2 mg/kg)?
A: 0 h

Q: What about the half-life ([2]; IV 2 mg/kg) of the same compound?
A: 3.57 h

Q: What about the DC50 (TEAD1) of the same compound?
A: 6 ± 4 nM

Q: What about the “TEAD1 Dmax” value (TEAD1) of the same compound?
A: ≈ 90%

Q: What about the Dmax (TEAD1; HEK-293T) of the same compound?
A: 93 ± 1%

Q: And the IC50 (HOS cells)?
A: 1.2 ± 1.5 nM

Q: And the IC50 [3]?
A: 543 ± 50 nM

Q: What about the Proteome-wide selectivity (A172 cells) of the same compound?
A: significantly and selectively downregulated TEAD1 protein levels

Source: paper PMC12752627, “Discovery of a Potent and Selective TEAD Degrader with Durable Degradation Activity” (Advanced Science, 2025)
